Patent US20240408107A1, “LACTAM PYRROLIDINE-PYRAZOLES AS PYRUVATE KINASE ACTIVATORS” (Global Blood Therapeutics, Inc., priority 2021, published 2024)

Experiments:
[1] = test system: PK activity, ATP levels, RBC parameters; conditions: mouse model of beta-thalassemia; cited from earlier work
[2] = target: T1, human pyruvate kinase R (PKR) (Homo sapiens, UniProt P30613); assay: Biochemical assay for activation of pyruvate kinase R (Kinase-Glo luminescence, ATP generation); conditions: for AC50: PKR biochemical assay, 0.1 nM PKR; for Emax: maximal activation level relative to the activation level achieved by AG-348 @ 10 μM
T1 construct: Human pyruvate kinase R (PKR), residues 14-574; 6xHis (N, cleaved yes); 8xArg (N, cleaved yes); SUMO (N, cleaved yes); host or cells: E. coli
Method: Human pyruvate kinase R (PKR), residues 14-574, and human pyruvate kinase M2, residues 1-531, were cloned into expression plasmids and obtained from ATUM Bio (Newark, CA). Proteins were translated as fusions with 6×-His,8×-Arg, and SUMO at the N-terminus. A third construct of human PKR was truncated, residues 50-574, and similarly cloned for use in crystallography experiments. All proteins were cloned, expressed in E. coli, and purified using similar protocols. Cells were grown at 30° C. in Luria-Bertani broth supplemented with 0.4% glucose to OD600=0.8 and induced with 0.4 mM IPTG at 16° C. for 18 hours. Cells were harvested by centrifugation, resuspended in 50 mM potassium phosphate pH 8.0, 500 mM NaCl, 25 mM imidazole pH 8.0, and 3 mM β-mercaptoethanol. Cells were lysed using a LM20 microfluidizer from Microfluidics (Westwood, MA). The crude lysate was immediately supplemented with 0.2 mM phenylmethylsulfonyl fluoride (PMSF) and centrifuged at 20,000 g for 20 minutes. The soluble fraction was subsequently incubated with 2 mL Ni-NTA (GE Healthcare) per 1,000 ODs for 1 hour at 4° C. Following incubation with the Ni-NTA resin, lysate was removed by pelleting resin at 2,500 g for 3 minutes and washed 3 times with 9 bed volumes of 50 mM potassium phosphate pH 8.0, 500 mM NaCl, 25 mM imidazole, and 3 mM β-mercaptoethanol. Following the batch wash Ni-NTA resin was loaded onto a gravity column and His-tagged protein was eluted with 6 bed volumes of 10 mM Tris/HCl pH 8.0, 200 mM NaCl, 500 mM imidazole, and 3 mM β-mercaptoethanol. Eluted protein was dialyzed overnight against 10 mM Tris/HCl pH 8.0, 200 mM NaCl, and 1 mM DTT and the 6×-His-8×-Arg-SUMO-tag was cleaved using a 20:1 molar ratio of protein:3C protease. The protein was purified by anion exchange chromatography on a HiTrapQ or MonoQ 10/100 GL column (GE Healthcare) via a linear NaCl gradient and twice by size exclusion chromatography using a Superdex S200 26/60 column (GE Healthcare) run in 10 mM Tris/HCl pH 8.0, 200 mM NaCl, 10 mM MgCl2, 1 mM DTT. Proteins were concentrated to ˜12 mg/mL for crystallization and flash frozen for storage.
Activation of pyruvate kinase R (PKR) and pyruvate kinase M2 (PKM2) were measured using a luminescence based measurement of ATP generation and the Kinase-Glo luminescent kinase reagent kit. 0.1 nM of PKR or PKM2 was incubated for 1 hour with 0.3 mM ADP, 2 mM FBP, 1% DMSO, compound and Assay Buffer mix (500 mM Tris/HCl pH 7.5, 500 mM NaCl, 50 mM MgCl2, BSA, and 2 mM DTT, in a total reaction volume of 30 uL. After one hour PEP was added to the reaction at a final concentration of 0.1 mM and incubated for another hour at room temperature. 30 uL of KinaseGlo reagent was added and the reaction was incubated for 15 minutes. Endpoint luminescence data was measured using an EnVision plate reader (PerkinElmer). The assay results are provided in Table 2 for PKR.

[3] = target: T2, Pyruvate Kinase M2 (PKM2) in H1299 cells (Homo sapiens, UniProt P14618); assay: Cell based assay for activation of pyruvate kinase M2 in lung carcinoma cell line (H1299, NADH/LDH coupled assay of lysate); conditions: PKM2 cellular assay; for AC50: H1299 cells, 90 minutes with compound; for PKM2 % activation: maximal activation level relative to the activation level achieved by AG-348 @ 10 μM
T2 construct: endogenous in cells; host or cells: H1299 cells
Method: H1299 cells were seeded in 96-well plates at 2,000 cells/well (100 uL). Treated plates were incubated overnight at 37° C. with 5% CO2. Compounds were diluted in complete media and added to cells in the presence of 1% DMSO. Cells were incubated with compound for 90 minutes at 37° C. and 5% CO2 before washing three times with PBS to remove residual compound and then lysed in lysis buffer (Cell Signaling). Cell lysate was analyzed using the NADH coupled assay described below with a reaction mixture of 180 uM NADH, 2 mM ADP, 0.5 units of LDH and 0.5 mM of PEP. PKM2 activity was measured at steady state using a coupled enzyme activation system based on NADH consumption. PKM2 produces pyruvate and the coupled system uses lactate dehydrogenase (LDH) to reduce pyruvate to lactate with the concomitant oxidation of NADH to NAD^+. Conversion of NADH to NAD^+ was monitored using a SPECTROstar Nano plate reader (BMG Labtech) at a wavelength of 340 nm and subtraction of background absorbance measured at 750 nm. The change in NADH absorbance after PEP addition was monitored and slope obtained by subtracting baseline at 750 nm followed by least squares fitting to a simple linear regression model. A 10-point curve was generated to calculate the AC50 values by fitting the rates of NADH consumption against increasing concentration of compound.

T1 sequence (P30613 14-574): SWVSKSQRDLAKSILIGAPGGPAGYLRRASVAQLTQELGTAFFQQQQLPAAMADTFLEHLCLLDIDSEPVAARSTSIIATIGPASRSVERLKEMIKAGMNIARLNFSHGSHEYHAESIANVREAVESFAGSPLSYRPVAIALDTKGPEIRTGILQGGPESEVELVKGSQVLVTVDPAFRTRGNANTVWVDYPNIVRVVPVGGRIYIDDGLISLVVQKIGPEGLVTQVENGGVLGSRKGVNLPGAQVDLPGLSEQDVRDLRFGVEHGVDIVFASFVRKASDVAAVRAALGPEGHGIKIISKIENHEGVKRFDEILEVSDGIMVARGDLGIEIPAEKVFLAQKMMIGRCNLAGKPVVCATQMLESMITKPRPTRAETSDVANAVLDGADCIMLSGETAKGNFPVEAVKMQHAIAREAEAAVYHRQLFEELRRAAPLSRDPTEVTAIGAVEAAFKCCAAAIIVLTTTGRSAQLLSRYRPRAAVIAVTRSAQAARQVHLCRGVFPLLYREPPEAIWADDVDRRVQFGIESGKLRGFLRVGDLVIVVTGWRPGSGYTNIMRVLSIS
T2 sequence (P14618 2-531 limits assumed): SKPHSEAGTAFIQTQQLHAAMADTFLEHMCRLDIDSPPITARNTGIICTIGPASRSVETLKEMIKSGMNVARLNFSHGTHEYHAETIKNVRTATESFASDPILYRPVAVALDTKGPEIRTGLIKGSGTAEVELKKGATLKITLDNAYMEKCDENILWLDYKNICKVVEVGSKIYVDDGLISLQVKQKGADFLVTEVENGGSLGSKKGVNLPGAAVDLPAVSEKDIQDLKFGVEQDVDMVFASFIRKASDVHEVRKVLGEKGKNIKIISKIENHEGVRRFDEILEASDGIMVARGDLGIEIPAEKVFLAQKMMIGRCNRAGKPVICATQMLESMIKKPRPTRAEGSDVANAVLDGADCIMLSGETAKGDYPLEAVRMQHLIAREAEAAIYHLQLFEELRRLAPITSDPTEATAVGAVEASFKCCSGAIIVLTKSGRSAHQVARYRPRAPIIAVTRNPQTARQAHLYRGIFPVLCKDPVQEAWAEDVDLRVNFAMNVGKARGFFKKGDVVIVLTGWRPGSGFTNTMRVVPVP

SMILES	AC50 [2]	Emax [2]	AC50 [3]	PKM2 % activation [3]	PK activity and ATP levels [1]	RBC parameters [1]
O=C(c1ccc(NS(=O)(=O)c2cccc3cccnc23)cc1)N1CCN(CC2CC2)CC1 [AG-348, Mitapivat]	–	–	–	–	increased	improved
O=C1Nc2ccccc2C1CC(=O)N1Cc2cn(S(=O)(=O)c3cnn(CC(F)F)c3)nc2C1 (stereo not drawn) [Compound 1, 3-[2-(2-{[1-(2,2-difluoroethyl)-1H-pyrazol-4-yl]sulfonyl}-2H,4H,5H,6H-pyrrolo[3,4-c]pyrazol-5-yl)-2-oxoethyl]-2,3-dihydro-1H-indol-2-one]	230 nM	212%	–	–	–	–
O=C(CN1C(=O)Cc2ccccc21)N1Cc2cn(S(=O)(=O)c3cnn(CC(F)F)c3)nc2C1 [Compound 2, 1-[2-(2-{[1-(2,2-difluoroethyl)-1H-pyrazol-4-yl]sulfonyl}-2H,4H,5H,6H-pyrrolo[3,4-c]pyrazol-5-yl)-2-oxoethyl]-2,3-dihydro-1H-indol-2-one]	410 nM	32%	–	–	–	–
O=C(Cn1c(=O)oc2ccccc21)N1Cc2cn(S(=O)(=O)c3cnn(CC(F)F)c3)nc2C1 [Compound 3, 3-[2-(2-{[1-(2,2-difluoroethyl)-1H-pyrazol-4-yl]sulfonyl}-2H,4H,5H,6H-pyrrolo[3,4-c]pyrazol-5-yl)-2-oxoethyl]-2,3-dihydro-1,3-benzoxazol-2-one]	1800 nM	60%	–	–	–	–
O=C(Cn1c(=O)[nH]c2ccccc21)N1Cc2cn(S(=O)(=O)c3cnn(CC(F)F)c3)nc2C1 [Compound 4, 1-[2-(2-{[1-(2,2-difluoroethyl)-1H-pyrazol-4-yl]sulfonyl}-2H,4H,5H,6H-pyrrolo[3,4-c]pyrazol-5-yl)-2-oxoethyl]-2,3-dihydro-1H-1,3-benzodiazol-2-one]	10000 nM	78%	–	–	–	–
O=C1COc2c(F)cccc2C(C(=O)N2Cc3cn(S(=O)(=O)c4cnn(CC(F)F)c4)nc3C2)N1 (stereo not drawn) [Compound 7, 5-(2-{[1-(2,2-difluoroethyl)-1H-pyrazol-4-yl]sulfonyl}-2H,4H,5H,6H-pyrrolo[3,4-c]pyrazole-5-carbonyl)-9-fluoro-2,3,4,5-tetrahydro-1,4-benzoxazepin-3-one]	1800 nM	66%	–	–	–	–
O=C1Nc2ccccc2C1CC(=O)N1Cc2cn(S(=O)(=O)c3ccc4ncsc4c3)nc2C1 (stereo not drawn) [Compound 9, 3-{2-[2-(1,3-benzothiazole-6-sulfonyl)-2H,4H,5H,6H-pyrrolo[3,4-c]pyrazol-5-yl]-2-oxoethyl}-2,3-dihydro-1H-indol-2-one]	28 nM	161%	100 nM	87%	–	–
O=C1Nc2ccccc2C1CC(=O)N1Cc2cn(S(=O)(=O)c3ccc(OC(F)F)cc3)nc2C1 (stereo not drawn) [Compound 10, 3-(2-{2-[4-(difluoromethoxy)benzenesulfonyl]-2H,4H,5H,6H-pyrrolo[3,4-c]pyrazol-5-yl}-2-oxoethyl)-2,3-dihydro-1H-indol-2-one]	78 nM	129%	14 nM	165%	–	–

Continued, in another order:

AC50 [2]	Emax [2]	AC50 [3]	PKM2 % activation [3]	SMILES	PK activity and ATP levels [1]	RBC parameters [1]
490 nM	91%	–	–	O=C1COc2ccccc2C(C(=O)N2Cc3cn(S(=O)(=O)c4cnn(CC(F)F)c4)nc3C2)N1 (stereo not drawn) [Compound 5, 5-(2-{[1-(2,2-difluoroethyl)-1H-pyrazol-4-yl]sulfonyl}-2H,4H,5H,6H-pyrrolo[3,4-c]pyrazole-5-carbonyl)-2,3,4,5-tetrahydro-1,4-benzoxazepin-3-one]	–	–
4400 nM	84%	–	–	O=C1Cc2ccccc2C(C(=O)N2Cc3cn(S(=O)(=O)c4cnn(CC(F)F)c4)nc3C2)N1 (stereo not drawn) [Compound 6, 1-(2-{[1-(2,2-difluoroethyl)-1H-pyrazol-4-yl]sulfonyl}-2H,4H,5H,6H-pyrrolo[3,4-c]pyrazole-5-carbonyl)-1,2,3,4-tetrahydroisoquinolin-3-one]	–	–
1900 nM	95%	–	–	CC1(CC(=O)N2Cc3cn(S(=O)(=O)c4cnn(CC(F)F)c4)nc3C2)C(=O)Nc2ccccc21 (stereo not drawn) [Compound 8, 3-[2-(2-{[1-(2,2-difluoroethyl)-1H-pyrazol-4-yl]sulfonyl}-2H,4H,5H,6H-pyrrolo[3,4-c]pyrazol-5-yl)-2-oxoethyl]-3-methyl-2,3-dihydro-1H-indol-2-one]	–	–
1700 nM	77%	–	–	O=C(CN1C(=O)Cc2ccccc21)N1Cc2cn(S(=O)(=O)c3ccc(OC(F)F)cc3)nc2C1 [Compound 11, 1-(2-{2-[4-(difluoromethoxy)benzenesulfonyl]-2H,4H,5H,6H-pyrrolo[3,4-c]pyrazol-5-yl}-2-oxoethyl)-2,3-dihydro-1H-indol-2-one]	–	–
210 nM	91%	–	–	O=C1COc2ccccc2C(C(=O)N2Cc3cn(S(=O)(=O)c4ccc(OC(F)F)cc4)nc3C2)N1 (stereo not drawn) [Compound 12, 5-{2-[4-(difluoromethoxy)benzenesulfonyl]-2H,4H,5H,6H-pyrrolo[3,4-c]pyrazole-5-carbonyl}-2,3,4,5-tetrahydro-1,4-benzoxazepin-3-one]	–	–
